We go through 52 compounds from patent US11873298B2, “Compounds and uses thereof” (JANSSEN PHARMACEUTICA NV, priority 2017, dated 2024).

The target of this experiment is T1, SCD5 (Homo sapiens, UniProt Q86SK9).
T1 construct: host or cells: S. cerevisiae ole1Δ strain (W303 pdr1Δ pdr3Δ background), plasmid pRS316 with TDH3 promoter and CYC1 terminator
T1 sequence (Q86SK9 1-330): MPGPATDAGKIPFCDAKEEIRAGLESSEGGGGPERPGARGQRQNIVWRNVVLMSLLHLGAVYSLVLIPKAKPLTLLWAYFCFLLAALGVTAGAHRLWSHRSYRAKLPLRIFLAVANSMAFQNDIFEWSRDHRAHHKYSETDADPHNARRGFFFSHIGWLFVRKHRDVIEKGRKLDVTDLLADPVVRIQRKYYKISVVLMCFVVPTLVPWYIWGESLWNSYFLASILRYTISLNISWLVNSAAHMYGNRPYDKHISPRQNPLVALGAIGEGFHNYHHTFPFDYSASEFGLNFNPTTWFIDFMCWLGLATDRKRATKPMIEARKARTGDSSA
Briefly: Growth inhibition of humanized yeast strain expressing SCD5 as sole desaturase. It counts as cell-based. The method, then: Strain oleΔ (yeast ole1 deletion mutant) was constructed by deleting OLE1 with NAT-MX6 in BY4741, amplifying the deletion cassette from the genomic DNA of the resulting strain with primers flanking the ORF by 1000 bp upstream and downstream, transforming the resulting deletion cassette into W303 pdr1Δ pdr3Δ, and plating transformants on YPD media containing G418 (200 μg/mL) and nourseothricin ([…]) with 0.01% TWEEN®-20 and 0.5 mM oleic and palmitoleic acids.
The coding sequence of yeast OLE1 was also cloned into this plasmid). These clones were then transformed into the ole1Δ strain and plated on CSM-Ura media (CSM lacking uracil) with 2% glucose (w/v) and independent colonies were isolated and amplified.
All compound profiling experiments were performed using the same basic protocol. Different genetic backgrounds (e.g., gene deletions) or conditions (e.g., addition of oleic and palmitoleic acid) were replaced as indicated below.
Yeast were cultured using standard techniques in complete synthetic media (CSM) and yeast nitrogen base supplemented with 2% (w/v) carbon source (glucose, raffinose, or galactose) to regulate the expression of the toxic disease protein. An initial starter culture was inoculated in 3 mL CSM-Glucose media and incubated overnight in a 30° C. shaker incubator (225 rpm). Saturated morning cultures were then diluted 1:20 in fresh CSM-Raffinose media and grown for 6 h to an OD600 (optical density) of ˜0.4-0.8 at 30° C. with shaking.
Compound administration was performed in two separate steps. First, 15 μL of CSM-Galactose (induces expression of toxic protein) was dispensed into clear 384 well assay plates using a MULTIDROP™ Combi reagent dispenser. […] The cultures described above were then diluted to a 2× concentration (0.03 and 0.08 for alpha-synuclein and ApoE, final ODsoo of 0.015 and 0.04) in CSM-Galactose. For wild-type and Ole1/SCD1/SCD5 plasmid-containing strains, the 2× cell density was 0.02. […] For 96-well assays (FIGS. 1A and 1B), compound dilutions in DMSO were generated in 96 well plates and 1 μL was manually pipetted into 96 well clear bottom assay plates.
For experiments using a plasmid-borne copy of Ole1, SCD1, or SCD5 (FIGS. 3B, 6, and 7), media lacking uracil (SX-Ura, where X is glucose, raffinose, or galactose), was used for all steps of the compound profiling protocol to ensure its maintenance throughout the assay.
After yeast delivery, assay plates were incubated under humidified conditions at 30° C. for 24 to 40 h. ApoE4 rescue experiments were stopped at 24 h, aSyn experiments at 40 h, Ole1 at 24 h, and SCD1/SCD5 at 40 h. The growth of yeast was monitored by reading the ODsoo of each well using a microplate reader (Perkin Elmer EnVision™).

[1] abbreviates: yeast strain expressing human SCD5 as sole desaturase, Table 8.
[2] abbreviates: humanized yeast strain expressing SCD5.

Molecules are shown by their SMILES.

A word on the IC50: it is the point on the concentration scale where inhibition reaches its midpoint. A high value points to weaker potency. `CC1(C(=O)N2CCC(c3noc(-c4cncc(C5CCOC5)c4)n3)CC2)CCC1` (stereo not shown) [Compound 1270]: inhibition under setting [1] was half-maximal at 400 nM (IC50).

`CC1(OC(=O)N2CCC(c3noc(-c4cncc(N5CCC(F)(F)C5)c4)n3)CC2)CC1` [Compound 1198] yielded a half-inhibitory concentration (IC50) under setting [1] of 1720 nM. Consider `CC(C)C(=O)N1CCC(c2noc(-c3ccnc(-c4cnco4)c3)n2)CC1` [Compound 1264], for which, under setting [1], the IC50 was found to be 3270 nM. `COc1ccc(S(=O)(=O)N2CCC(c3nc(-c4ccc5cnn(C(C)C)c5c4)no3)CC2)c(Br)c1` [Compound 539] showed an IC50 under setting [2] of more than 45000 nM.

Under setting [1], `CC(C)C(=O)N1CCC(c2noc(-c3cc(C4CCOC4)ccn3)n2)CC1` (stereo not shown) [Compound 1204] showed an IC50 of 2390 nM. `Cc1nn(C)c2cc(-c3noc(C4CCN(C(=O)CC5CN(C(=O)OC(C)(C)C)C5)CC4)n3)ccc12` [Compound 502] registered an IC50 under setting [2] of 38900 nM. As for `O=C(C1CC1)N1CCC(c2noc(-c3ccnc(N4CCC(F)(F)C4)c3)n2)CC1` [Compound 1247], the concentration for half-maximal inhibition (IC50) under setting [1] is 1050 nM.

Turning to `CCC(=O)N1CCC(c2cc(-c3cc4c(cn3)cnn4C3COC3)on2)CC1` [Compound 1227], under setting [1], the IC50 worked out at 960 nM. Under setting [1], `O=C(C1CC1)N1CCC(c2noc(-c3cc(C4CCOC4)c(F)cn3)n2)CC1` (stereo not shown) [Compound 1296] displayed an IC50 of 250 nM.

Compound `CC(C)n1ncc2ccc(-c3noc(C4CCN(C(=O)c5ccsn5)CC4)n3)cc21` [Compound 588] showed an IC50 under setting [2] of 1860 nM. Under setting [1], `CC(C)(C)OC(=O)N1CCC(c2noc(-c3cc(N4CCOCC4)c(F)cn3)n2)CC1` [Compound 1273] returned an IC50 of 20 nM.

As to `CC(C)C(=O)N1CCC(c2noc(-c3ccc(F)c(N4CCOC5(CC5)C4)c3)n2)CC1` [Compound 1302], the half-maximal inhibitory concentration (IC50) under setting [1] was 900 nM. The compound `CC(C)(C)OC(=O)N1CCC(c2noc(-c3ccnc(-c4cocn4)c3)n2)CC1` [Compound 1293] returned a 50% inhibitory concentration (IC50) under setting [1] of 490 nM. The same measure, in the same setting: the result for `CC(C)(C)OC(=O)N1CCC(c2noc(-c3ccnc(-c4ccon4)c3)n2)CC1` [Compound 1277] reads 2500 nM. For `CC(C)n1ncc2ccc(-c3noc(C4CCN(C(=O)c5ccsc5Cl)CC4)n3)cc21` [Compound 575], the IC50 under setting [2] came to 4680 nM. For the compound `CC(C)n1ncc2ccc(-c3noc(N4C[C@@H]5CN(C(=O)CC(C)(C)C)C[C@H]5C4)n3)cc21` [Compound 569], under setting [2], the IC50 is more than 45000 nM. As to `CC(C)(C)OC(=O)N1CCC(c2noc(-c3cc(N4CCC(F)(F)C4)c(F)cn3)n2)CC1` [Compound 1287], under setting [1], the IC50 is 340 nM.

Under setting [1], `CC(C)(C)OC(=O)N1CCC(c2noc(-c3cc(N4CCOCC4)ccn3)n2)CC1` [Compound 1288] came in with an IC50 of 5550 nM. Under setting [2], `CC(C)n1ncc2ccc(-c3noc(C4CCN(C(=O)CNC(=O)c5cccc(C#N)c5)CC4)n3)cc21` [Compound 556] registered an IC50 of more than 45000 nM.

Under setting [1], `CC1(OC(=O)N2CCC(c3noc(-c4cc(C5CCOC5)ccn4)n3)CC2)CC1` (stereo not shown) [Compound 1205] showed an IC50 of 330 nM. In turn, `O=C(C1CC1)N1CCC(c2cc(-c3cc4c(cn3)cnn4C3COC3)on2)CC1` [Compound 1236] registered an IC50 under setting [1] of 200 nM. Still for that read-out and setting: under `O=C(N1CCC(c2noc(-c3cc(C4CCOC4)ncc3F)n2)CC1)C1(F)CCC1` (stereo not shown) [Compound 1275] stands 20 nM.

The compound `CC(C)n1ncc2ccc(-c3nc(C4CCN(C(=O)c5ccc(Cl)cc5)CC4)no3)cc21` [Compound 505] yielded an IC50 under setting [2] of 669 nM. `CC(C)(C)OC(=O)N1CCC(c2noc(-c3ccc(C4CCOC4)nc3)n2)CC1` (stereo not shown) [Compound 1262] had an IC50 under setting [1] of 14100 nM.

`CCC(=O)N1CCC(c2noc(-c3ccnc(N4CCC(F)(F)C4)c3)n2)CC1` [Compound 1248] returned an IC50 under setting [1] of 6930 nM. Consider `CC(C)C(=O)N1CCC(c2noc(-c3ccc(C#N)c(N4CCOCC4)c3)n2)CC1` [Compound 1291], for which, under setting [1], the IC50 was 650 nM.

Regarding `CC1(OC(=O)N2CCC(c3noc(-c4cc(C5CCOC5)c(F)cn4)n3)CC2)CC1` (stereo not shown) [Compound 1298], under setting [1], half-maximal inhibition (IC50) required 30 nM.

Under setting [2], `Cc1noc2cc(-c3noc(C4CCN(C(=O)CC5(C)CC5)CC4)n3)ccc12` [Compound 591] came in with an IC50 of more than 45000 nM. With `CC1(OC(=O)N2CCC(c3noc(-c4ccnc(-c5cocn5)c4)n3)CC2)CC1` [Compound 1310], the IC50 under setting [1] was found to be 470 nM. In the case of `CC(C)n1ncc2ccc(-c3noc(C4CCN(C(=O)c5ncc(Cl)s5)CC4)n3)cc21` [Compound 589], the IC50 under setting [2] turned out to be 356 nM. Turning to `CC(C)(C)OC(=O)N1CCC(c2noc(-c3ccnc(-c4cnoc4)c3)n2)CC1` [Compound 1213], half-maximal inhibition under setting [1] (IC50) was put at 60 nM.

In turn, `COCC(=O)N1CCN(c2nc(-c3ccc4cnn(C(C)C)c4c3)no2)CC1` [Compound 595] displayed an IC50 under setting [2] of more than 45000 nM. For the compound `COC(=O)N1CCC(c2noc(-c3cc(C4CCOC4)ncc3F)n2)CC1` (stereo not shown) [Compound 1274], inhibition under setting [1] was half-maximal at 190 nM (IC50). Regarding `CC(C)n1ncc2ccc(-c3noc(C4=C(F)CN(C(=O)OC(C)(C)C)CC4)n3)cc21` [Compound 510], inhibition under setting [2] was half-maximal at 4160 nM (IC50). In turn, `O=C(C1CCC1)N1CCC(c2cc(-c3cnc4cnn(C5COC5)c4c3)on2)CC1` [Compound 1232] yielded an IC50 under setting [1] of 7840 nM.

For the compound `CC(C)(C)OC(=O)N1CCC(c2noc(-c3ccc(OC4COC4)nc3)n2)CC1` [Compound 1249], half-maximal inhibition under setting [1] (IC50) required 4910 nM. Compound `CC1(OC(=O)N2CCC(c3noc(N4CCc5cnn(C6COC6)c5C4)n3)CC2)CC1` [Compound 1224] registered an IC50 under setting [1] of 60 nM. In turn, `COC(=O)N1CCC(c2nc(-c3ccc4cnn(C(F)F)c4c3)no2)CC1` [Compound 561] yielded an IC50 under setting [2] of 29400 nM.

Turning to `CC(C)C(=O)N1CCC(c2noc(-c3cc(F)c(F)c(N4CCOCC4)c3)n2)CC1` [Compound 1304], 11900 nM corresponded to half-maximal inhibition under setting [1] (IC50).

The compound `CC(C)n1ncc2ccc(-c3nc(N4CCN(C(=O)OC(C)(C)C)CC4)no3)cc21` [Compound 548] yielded an IC50 under setting [2] of 10 nM. Compound `Cc1noc2cc(-c3noc(C4CCN(C(=O)OC5(C)CC5)CC4)n3)ccc12` [Compound 590] yielded an IC50 under setting [2] of more than 45000 nM. In the case of `O=C(C1CCC1)N1CCC(c2noc(-c3ccnc(O[C@@H]4CCOC4)c3)n2)CC1` [Compound 1269], the IC50 under setting [1] turned out to be 590 nM. On the same count and under the same terms, the result for `CCC(=O)N1CCC(c2noc(-c3cc(N4CCOCC4)c(F)cn3)n2)CC1` [Compound 1276] reads 4680 nM. Under setting [2], `CC(C)n1ncc2ccc(-c3nc(C4CCN(C(=O)CC5(C)CC5)CC4)no3)cc21` [Compound 546] returned an IC50 of 19 nM. As for `O=C(C1CC1)N1CCC(c2noc(-c3cnc4cnn(C5CCOC5)c4c3)n2)CC1` (stereo not shown) [Compound 1251], under setting [1], the IC50 was 30 nM.

The compound `O=C(C1CCC1)N1CCC(c2noc(-c3ccnc([C@@H]4CCOC4)c3)n2)CC1` [Compound 1242] had an IC50 under setting [1] of 380 nM. Same read-out and setting: the result for `COC(=O)C(O)Cn1ncc2ccc(-c3nc(C4CCN(C(=O)OC(C)(C)C)CC4)no3)cc21` (stereo not shown) [Compound 1244] reads 760 nM. The compound `CC(C)n1ncc2ccc(-c3noc(C4CCN(C(=O)c5nccs5)CC4)n3)cc21` [Compound 549] had an IC50 under setting [2] of 1210 nM.

`CCc1cnc(N2CCC(c3nc(-c4ccc5c(C)nn(C)c5c4)no3)CC2)cn1` [Compound 560] came in with an IC50 under setting [2] of more than 45000 nM. `CC1(OC(=O)N2CCC(c3noc(-c4ccc(C5CCOC5)nc4)n3)CC2)CC1` (stereo not shown) [Compound 1268] registered an IC50 under setting [1] of 32600 nM. Under setting [2], `CC(=O)N1CCC2(CC1)CN(c1nc(-c3ccc4cnn(C(C)C)c4c3)no1)C2` [Compound 571] yielded an IC50 of more than 45000 nM. `O=C(C1CC1)N1CCC(c2noc(-c3ccc(F)c(N4CCOCC4)c3)n2)CC1` [Compound 1259]: the IC50 under setting [1] came to 40 nM.
